Laboratory results from the NIST ThermoML archive (doi:10.1016/j.jct.2010.01.008).
± gives the expanded uncertainty stated by the source.

Assays:
[1] = 298.15 K; 101.33 kPa; Liquid; Vibrating tube method
[2] = refractive index (Na D-line) (dimensionless); settings: 298.15 K; 101.33 kPa; Liquid; Automatic Refractometer
[3] = xn = mol fraction of the nth substance listed; settings: 298.15 K, 101.3 kPa, Liquid, Vibrating tube method

## CCOS(=O)(=O)[O-].CC[n+]1cccc(C)c1 [1-ethyl-3-methylpyridinium ethylsulfate]
[1]
  mass density: 1219.61 ± 0.42 kg/m3
[2]
  refractive index: 1.50591 ± 0.00022

## CCCCCCC [heptane] + Cc1ccccc1
[3]; x1 = 1
  mass density: 679.56 ± 0.2 kg/m3

## CCCCCCCCC [nonane] + Cc1ccccc1
[3]; x1 = 0.096
  mass density: 838.74 ± 0.27 kg/m3
[3]; x1 = 0.1942
  mass density: 817.91 ± 0.25 kg/m3
[3]; x1 = 0.2952
  mass density: 799.09 ± 0.24 kg/m3
[3]; x1 = 0.3954
  mass density: 782.63 ± 0.23 kg/m3
[3]; x1 = 0.4954
  mass density: 768.02 ± 0.23 kg/m3
[3]; x1 = 0.5929
  mass density: 755.35 ± 0.23 kg/m3
[3]; x1 = 0.6939
  mass density: 743.54 ± 0.24 kg/m3
[3]; x1 = 0.7939
  mass density: 732.97 ± 0.25 kg/m3
[3]; x1 = 0.8947
  mass density: 723.28 ± 0.26 kg/m3
[3]; x1 = 1
  mass density: 713.99 ± 0.26 kg/m3

## CCCCCCCC [octane] + Cc1ccccc1
[3]; x1 = 0.0982
  mass density: 838.13 ± 0.27 kg/m3
[3]; x1 = 0.1977
  mass density: 816.31 ± 0.26 kg/m3
[3]; x1 = 0.2975
  mass density: 796.62 ± 0.24 kg/m3
[3]; x1 = 0.3983
  mass density: 778.64 ± 0.23 kg/m3
[3]; x1 = 0.5005
  mass density: 761.92 ± 0.23 kg/m3
[3]; x1 = 0.5988
  mass density: 747.35 ± 0.22 kg/m3
[3]; x1 = 0.699
  mass density: 733.63 ± 0.22 kg/m3
[3]; x1 = 0.7966
  mass density: 721.31 ± 0.22 kg/m3
[3]; x1 = 0.8955
  mass density: 709.92 ± 0.22 kg/m3
[3]; x1 = 1
  mass density: 698.6 ± 0.19 kg/m3

## Cc1ccccc1 [toluene] + CCCCCCC
[3]; x2 = 0
  mass density: 862.17 ± 0.14 kg/m3
[3]; x2 = 0.0974
  mass density: 838.12 ± 0.28 kg/m3
[3]; x2 = 0.1996
  mass density: 814.81 ± 0.27 kg/m3
[3]; x2 = 0.2997
  mass density: 793.52 ± 0.26 kg/m3
[3]; x2 = 0.397
  mass density: 774.31 ± 0.25 kg/m3
[3]; x2 = 0.497
  mass density: 755.94 ± 0.24 kg/m3
[3]; x2 = 0.5961
  mass density: 738.9 ± 0.24 kg/m3
[3]; x2 = 0.6967
  mass density: 722.76 ± 0.24 kg/m3
[3]; x2 = 0.7958
  mass density: 707.78 ± 0.24 kg/m3
[3]; x2 = 0.8973
  mass density: 693.24 ± 0.23 kg/m3

## Cc1ccccc1 [toluene] + CCCCCCCC
[3]; x2 = 0
  mass density: 862.17 ± 0.14 kg/m3

## Cc1ccccc1 [toluene] + CCCCCCCCC
[3]; x2 = 0
  mass density: 862.17 ± 0.14 kg/m3
